Kd and EC50 data for 2 compounds are collected here from article PMC8967002, “Quantitative input–output dynamics of a c-di-GMP signal transduction cascade in Vibrio cholerae” (PLoS Biology, 2022).

Assay [1] deals with NspS-6xHis (Vibrio cholerae, UniProt Q9KU25). The assay can be described thus: biochemical.
The target in assay [2] is NspS-MbaA (Vibrio cholerae, UniProt Q9KU25). To be noted: ΔnspC ΔpotD1 V. cholerae cells (no norspermidine synthesis or import); M9 minimal medium; activates MbaA diguanylate cyclase output via NspS.

In general, Kd refers to the constant that tells how readily two partners part at equilibrium. Low readings indicate tighter binding, high ones weaker binding. What is called EC50 is the concentration that produces a half-maximal response. High values mean weaker potency, low ones greater potency.

The structures appear in SMILES notation.

Sequence of NspS-6xHis (Q9KU25 35-359 limits assumed): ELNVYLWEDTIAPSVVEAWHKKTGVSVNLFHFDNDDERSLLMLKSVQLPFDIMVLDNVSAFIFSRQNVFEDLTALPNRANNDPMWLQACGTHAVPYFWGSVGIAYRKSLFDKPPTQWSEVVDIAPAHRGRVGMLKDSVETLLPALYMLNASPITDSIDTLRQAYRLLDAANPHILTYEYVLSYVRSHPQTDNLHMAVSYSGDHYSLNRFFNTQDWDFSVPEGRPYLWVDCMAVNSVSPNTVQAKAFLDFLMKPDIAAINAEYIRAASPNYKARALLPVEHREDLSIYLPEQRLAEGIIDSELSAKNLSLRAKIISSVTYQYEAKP
Sequence of NspS-MbaA (Q9KU25 whole entry, looked up): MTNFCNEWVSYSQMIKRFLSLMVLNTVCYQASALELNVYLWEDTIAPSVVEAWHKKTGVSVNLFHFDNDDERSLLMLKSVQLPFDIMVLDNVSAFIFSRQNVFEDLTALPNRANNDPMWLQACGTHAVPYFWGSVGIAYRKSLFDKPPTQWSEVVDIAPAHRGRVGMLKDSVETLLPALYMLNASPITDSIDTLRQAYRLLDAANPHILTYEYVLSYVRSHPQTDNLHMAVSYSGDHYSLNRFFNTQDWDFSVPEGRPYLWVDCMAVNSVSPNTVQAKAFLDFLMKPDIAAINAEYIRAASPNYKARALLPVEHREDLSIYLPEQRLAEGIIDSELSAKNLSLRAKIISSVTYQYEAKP

The compound `NCCCNCCCN` [norspermidine] yielded a Kd in assay [1] of 67.1 ± 12.2 nM. In assay [2], the EC50 was in the range of 1 to 5 nM.
Regarding `NCCCCNCCCN` [spermidine], in assay [1], binding was characterised by a dissociation constant (Kd) of 48.4 ± 14.7 nM.
